# Test results: US8450305B2, “Macrocyclic compounds useful as inhibitors of kinases and HSP90” (Universite de Strasbourg, priority 2006, dated 2013)
# Key:
# Assay type in all cases: biochemical
# [1] = biological target: T1, CDK4/CycD1 (Homo sapiens, UniProt P11802); experiment: Radiometric protein kinase assay, CDK4/CycD1; settings: 1 μM ATP; read-out: Inhibitory activity (IC50:μM) CDK4/CycD1
# T1 construct: host or cells: Sf9 insect cells (baculovirus)
# Source text: (§1) All protein kinases were expressed in Sf9 insect cells as human recombinant GST-fusion proteins or His-tagged proteins by means of the baculovirus expression system. Kinases were purified by affinity chromatography using either GSH-agarose (Sigma) or Ni-NTH-agarose (Qiagen). The purity of each kinase was checked by SDS-PAGE/silver staining and the identity of each kinase was verified by western blot analysis with kinase specific antibodies or by mass spectroscopy.
# (§2) A radiometric protein kinase assay (^33PanQinase® Activity Assay) was used for measuring the kinase activity of the 24 protein kinases. All kinase assays were performed in 96-well FlashPlates™ from Perkin Elmer (Boston, Mass., USA) in a 50 μl reaction volume. The reaction cocktail was pipetted in 4 steps in the following order: • 20 μl of assay buffer • 5 μl of ATP solution (in H2O) • 5 μl of test compound (in 10% DMSO) • 10 μl of substrate/10 […] of enzyme solution (premixed)
# (§3) The assay for all enzymes contained 60 mM HEPES-NaOH, pH 7.5, 3 mM MgCl2, 3 mM MnCl2, 3 μM Na-orthovanadate, 1.2 mM DTT, 50 μg/ml PEG20000, 1 μM [γ-^33P]-ATP (approx. 5×10^05 cpm per well).
# (§4) For the 24 kinase assays, the following amounts of enzyme and substrate were used per well:
# (§5) The reaction cocktails were incubated at 30° C. for 80 minutes. The reaction was stopped with 50 μl of 2% (v/v) H3PO4, plates were aspirated and washed two times with 200 μl of 0.9% (w/v) NaCl or 200 μl H2O. Incorporation of ^33Pi was determined with a microplate scintillation counter (Microbeta Trilux, Wallac).
# (§6) The median value of the counts in column 1 (n=8) of each assay plate was defined as “low control”. This value reflects unspecific binding of radioactivity to the plate in the absence of a protein kinase but in the presence of the substrate. The median value of the counts in column 7 of each assay plate (n=8) was taken as the “high control”, i.e. full activity in the absence of any inhibitor. The difference between high and low control was taken as 100% activity.
# (§7) As part of the data evaluation the low control value from a particular plate was subtracted from the high control value as well as from all 80 “compound values” of the corresponding plate. The residual activity (in %) for each well of a particular plate was calculated by using the following formula: Res. Activity (%)=100×[(cpm of compound−low control)/(high control−low control)]
# (§8) The residual activities for each concentration and the compound IC50 values were calculated using Quattro Workflow V2.1.0.0 (Quattro Research GmbH, Munich, Germany; www.quattro-research.com). The model used was “Sigmoidal response (variable slope)” with parameters “top” fixed at 100% and “bottom” at 0%.
# [2] = biological target: T2, EPHB4 (Homo sapiens, UniProt P54760); experiment: Radiometric protein kinase assay, EPHB4; settings: 1 μM ATP; read-out: Inhibitory activity (IC50:μM) EPHB4
# T2 construct: host or cells: Sf9 insect cells (baculovirus)
# T2 sequence (P54760 16-987): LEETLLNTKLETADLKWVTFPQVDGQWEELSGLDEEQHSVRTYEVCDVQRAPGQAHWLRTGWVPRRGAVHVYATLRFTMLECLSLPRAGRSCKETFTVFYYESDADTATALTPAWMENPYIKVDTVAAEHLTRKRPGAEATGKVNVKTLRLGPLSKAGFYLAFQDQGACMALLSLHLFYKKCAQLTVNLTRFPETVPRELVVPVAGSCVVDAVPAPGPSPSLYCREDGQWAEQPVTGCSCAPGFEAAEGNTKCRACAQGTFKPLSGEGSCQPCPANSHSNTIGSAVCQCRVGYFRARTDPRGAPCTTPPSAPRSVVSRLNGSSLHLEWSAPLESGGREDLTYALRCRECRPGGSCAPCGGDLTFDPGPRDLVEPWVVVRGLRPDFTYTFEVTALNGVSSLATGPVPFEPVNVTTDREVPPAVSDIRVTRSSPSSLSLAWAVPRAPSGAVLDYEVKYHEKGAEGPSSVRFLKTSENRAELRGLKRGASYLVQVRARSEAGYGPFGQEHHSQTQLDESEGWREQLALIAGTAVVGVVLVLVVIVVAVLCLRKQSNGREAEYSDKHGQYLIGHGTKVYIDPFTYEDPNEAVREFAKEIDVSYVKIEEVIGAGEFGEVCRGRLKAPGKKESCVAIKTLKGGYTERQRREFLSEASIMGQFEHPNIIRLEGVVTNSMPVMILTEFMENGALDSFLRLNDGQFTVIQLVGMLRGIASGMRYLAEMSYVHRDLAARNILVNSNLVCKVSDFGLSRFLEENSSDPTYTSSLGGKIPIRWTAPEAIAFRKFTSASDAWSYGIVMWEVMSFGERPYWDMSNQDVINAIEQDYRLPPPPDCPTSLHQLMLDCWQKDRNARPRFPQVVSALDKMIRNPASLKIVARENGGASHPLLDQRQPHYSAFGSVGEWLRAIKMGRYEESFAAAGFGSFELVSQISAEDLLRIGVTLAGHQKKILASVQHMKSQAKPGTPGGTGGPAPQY
# Source text: as §1, §2, §3, §4, §5, §6, §7, §8
# [3] = biological target: T3, B-RAF-VE (Homo sapiens, UniProt P15056, V600E); experiment: Radiometric protein kinase assay, B-RAF-VE; settings: 1 μM ATP; read-out: Inhibitory activity (IC50:μM) B-RAF-VE
# T3 construct: host or cells: Sf9 insect cells (baculovirus)
# T3 sequence (P15056 whole entry V600E): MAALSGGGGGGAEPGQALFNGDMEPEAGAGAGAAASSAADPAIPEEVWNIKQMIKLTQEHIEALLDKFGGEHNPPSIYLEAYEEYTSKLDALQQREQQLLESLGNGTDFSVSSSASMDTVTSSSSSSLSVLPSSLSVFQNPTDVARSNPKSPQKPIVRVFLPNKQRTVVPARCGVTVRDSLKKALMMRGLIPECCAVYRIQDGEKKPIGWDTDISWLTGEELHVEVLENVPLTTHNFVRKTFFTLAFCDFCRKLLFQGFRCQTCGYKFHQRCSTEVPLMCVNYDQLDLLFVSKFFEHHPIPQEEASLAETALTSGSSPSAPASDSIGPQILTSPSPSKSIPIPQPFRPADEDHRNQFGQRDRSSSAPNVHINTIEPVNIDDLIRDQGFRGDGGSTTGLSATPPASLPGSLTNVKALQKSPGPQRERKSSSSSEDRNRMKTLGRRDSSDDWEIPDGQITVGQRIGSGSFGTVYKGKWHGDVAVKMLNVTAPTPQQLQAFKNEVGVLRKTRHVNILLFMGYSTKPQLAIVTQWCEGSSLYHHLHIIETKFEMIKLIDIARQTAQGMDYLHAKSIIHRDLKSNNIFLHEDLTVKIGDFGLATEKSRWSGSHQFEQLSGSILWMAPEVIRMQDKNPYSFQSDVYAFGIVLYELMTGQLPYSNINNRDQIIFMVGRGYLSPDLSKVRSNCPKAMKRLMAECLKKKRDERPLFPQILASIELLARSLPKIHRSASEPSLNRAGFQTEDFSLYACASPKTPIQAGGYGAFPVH
# Source text: as §1
# (§9) A radiometric protein kinase assay (^33PanQinase® Activity Assay) was used for measuring the kinase activity of the 24 protein kinases. […]
# (§10) The reaction cocktails were incubated at 30° C. for 80 minutes. […] Incorporation of ^33Pi was determined with a microplate scintillation counter (Microbeta Trilux, Wallac).
# (§11) The median value of the counts in column 1 (n=8) of each assay plate was defined as “low control”. This value reflects unspecific binding of radioactivity to the plate in the absence of a protein kinase but in the presence of the substrate. […]
# (§12) As part of the data evaluation the low control value from a particular plate was subtracted from the high control value as well as from all 80 “compound values” of the corresponding plate. The residual activity (in %) for each well of a particular plate was calculated by using the following formula: Res. Activity (%)=100×[(cpm of compound−low control)/(high control−low control)] […]
# [4] = biological target: T4, ERBB2 (Homo sapiens, UniProt P04626); experiment: Radiometric protein kinase assay, ERBB2; settings: 1 μM ATP; read-out: Inhibitory activity (IC50:μM) ERBB2
# T4 construct: host or cells: Sf9 insect cells (baculovirus)
# T4 sequence (P04626 23-1255): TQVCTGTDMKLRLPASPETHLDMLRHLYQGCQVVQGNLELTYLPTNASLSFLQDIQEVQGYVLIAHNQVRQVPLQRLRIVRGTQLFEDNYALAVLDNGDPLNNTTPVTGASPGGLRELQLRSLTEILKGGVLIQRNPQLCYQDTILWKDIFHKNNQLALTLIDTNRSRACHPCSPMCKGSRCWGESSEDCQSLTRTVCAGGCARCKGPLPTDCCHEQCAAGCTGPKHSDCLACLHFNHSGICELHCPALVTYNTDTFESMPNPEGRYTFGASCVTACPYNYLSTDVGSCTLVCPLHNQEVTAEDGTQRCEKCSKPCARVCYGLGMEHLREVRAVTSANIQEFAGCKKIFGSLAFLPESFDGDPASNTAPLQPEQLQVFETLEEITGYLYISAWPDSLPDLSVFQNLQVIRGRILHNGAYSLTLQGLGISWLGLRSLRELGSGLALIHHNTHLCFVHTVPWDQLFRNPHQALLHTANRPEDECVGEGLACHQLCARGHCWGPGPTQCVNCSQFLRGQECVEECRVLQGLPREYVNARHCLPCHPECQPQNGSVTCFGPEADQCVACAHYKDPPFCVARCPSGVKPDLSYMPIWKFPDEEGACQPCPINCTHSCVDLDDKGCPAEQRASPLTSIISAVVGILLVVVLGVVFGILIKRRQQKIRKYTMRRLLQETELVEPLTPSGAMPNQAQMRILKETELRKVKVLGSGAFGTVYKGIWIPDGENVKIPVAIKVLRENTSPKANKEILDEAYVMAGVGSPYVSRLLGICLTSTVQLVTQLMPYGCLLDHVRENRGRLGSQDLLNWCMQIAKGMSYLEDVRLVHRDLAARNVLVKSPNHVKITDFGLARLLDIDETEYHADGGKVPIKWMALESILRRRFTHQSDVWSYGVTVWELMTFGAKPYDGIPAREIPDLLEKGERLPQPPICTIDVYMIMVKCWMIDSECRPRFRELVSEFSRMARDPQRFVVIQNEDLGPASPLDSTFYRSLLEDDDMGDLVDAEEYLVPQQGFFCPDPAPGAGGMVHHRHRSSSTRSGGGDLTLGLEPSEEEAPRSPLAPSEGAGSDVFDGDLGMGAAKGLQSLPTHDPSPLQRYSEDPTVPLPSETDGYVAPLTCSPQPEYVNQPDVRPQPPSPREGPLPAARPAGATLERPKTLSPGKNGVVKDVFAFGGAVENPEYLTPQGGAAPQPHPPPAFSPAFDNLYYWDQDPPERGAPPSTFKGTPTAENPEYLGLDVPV
# Source text: as §1, §9, §10, §11, §12
# [5] = biological target: T5, INS-R (Homo sapiens, UniProt P06213); experiment: Radiometric protein kinase assay, INS-R; settings: 1 μM ATP; read-out: Inhibitory activity (IC50:μM) INS-R
# T5 construct: host or cells: Sf9 insect cells (baculovirus)
# T5 sequence (P06213 980-1382 limits assumed): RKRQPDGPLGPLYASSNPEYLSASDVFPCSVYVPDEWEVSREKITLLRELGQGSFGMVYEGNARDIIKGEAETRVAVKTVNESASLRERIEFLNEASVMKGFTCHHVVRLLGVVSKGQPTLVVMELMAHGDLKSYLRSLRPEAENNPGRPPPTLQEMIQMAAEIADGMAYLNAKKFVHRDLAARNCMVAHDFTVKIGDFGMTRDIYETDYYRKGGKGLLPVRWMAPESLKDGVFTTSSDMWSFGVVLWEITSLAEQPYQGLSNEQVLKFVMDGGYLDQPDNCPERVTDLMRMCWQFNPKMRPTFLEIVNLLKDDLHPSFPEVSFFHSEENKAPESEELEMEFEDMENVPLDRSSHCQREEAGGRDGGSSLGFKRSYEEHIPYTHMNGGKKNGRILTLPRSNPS
# Source text: as §1, §9, §10, §11, §12
# T1 sequence (P11802 whole entry): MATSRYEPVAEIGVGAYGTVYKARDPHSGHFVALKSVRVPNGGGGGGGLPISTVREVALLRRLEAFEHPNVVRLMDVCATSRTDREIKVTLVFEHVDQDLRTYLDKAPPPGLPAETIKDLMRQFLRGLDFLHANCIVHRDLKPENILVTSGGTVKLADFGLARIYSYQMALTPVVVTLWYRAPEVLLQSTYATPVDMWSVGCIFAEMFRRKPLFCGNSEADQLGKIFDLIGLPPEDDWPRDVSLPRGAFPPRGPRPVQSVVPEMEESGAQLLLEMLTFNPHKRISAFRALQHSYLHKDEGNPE
# T1 sequence (P24385 whole entry partner): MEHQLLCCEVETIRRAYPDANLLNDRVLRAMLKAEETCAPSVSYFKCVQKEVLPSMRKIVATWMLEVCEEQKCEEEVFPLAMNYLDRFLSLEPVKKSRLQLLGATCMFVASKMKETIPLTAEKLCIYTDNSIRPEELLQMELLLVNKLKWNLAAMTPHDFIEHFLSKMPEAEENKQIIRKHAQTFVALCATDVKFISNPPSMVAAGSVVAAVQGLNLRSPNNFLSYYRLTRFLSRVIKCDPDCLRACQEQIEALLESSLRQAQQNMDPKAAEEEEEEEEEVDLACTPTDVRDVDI
SMILES,IC50 [1] [µM],IC50 [2] [µM],IC50 [3] [µM],IC50 [4] [µM],IC50 [5] [µM]
CC(C)[C@@H]1CC2OC2CC/C=C/C(=O)Cc2c(Cl)c(O)cc(O)c2C(=O)O1 (some centres unmarked) [A-4],48,,,,
COC1CC/C=C/C[C@H](c2ccccc2)OC(=O)c2c(O)cc(O)c(Cl)c2CC(=O)C1 (some centres unmarked) [A-2],50,16,,16,36

# Compounds with a lower IC50 [1], results first:
IC50 [1] [µM],IC50 [2] [µM],IC50 [3] [µM],IC50 [4] [µM],IC50 [5] [µM],SMILES
45,49,50,,,O=C1/C=C/CCC2OC2C[C@H](c2ccccc2)OC(=O)c2c(O)cc(O)c(Cl)c2C1 (some centres unmarked) [A-5]
37,40,,,,O=C1/C=C/CCC2OC2C[C@@H](Cc2ccccc2)OC(=O)c2c(O)cc(O)cc2C1 (some centres unmarked) [A-6]
30,40,,24,44,O=C1Cc2c(Cl)c(O)cc(O)c2C(=O)O[C@H](c2ccccc2)C/C=C/CCC(Cl)C1 (some centres unmarked) [A-3]
